Like-named read-outs stand apart in the source and are kept apart here.
Tested on: TNF-α
Assay: LPS-induced TNF-α secretion in THP-1 cells, ELISA of culture supernatant
Assay type: cell-based, human
Settings: for TNF-α level, % of the positive control / TNF-α, % of the positive control level: 100 ng/mL LPS; for inhibition at 10 µM: Homo sapiens, THP-1; for TNF-α treatment value, A: relative to control, 5 μM
Method: 1) Recoveried and expanded THP-1 cells in a T75 culture flask. The growth medium was 10 milliliters of 10% fetal bovine serun/RPMI1640 (already containing 2 mM glutamine)/1% double antibiotics in each flask. Observed the cells under an invert microscope, and, when the cells were in the logarithmic growth phase, started the following drug treatment experiments; 2) Cultured 2*10e5/mL THP-1 cells in a 96-well culture plate with 100 microliters of growth medium (10% fetal bovine serum/RPMI640/1% double antibiotics) per well, and added 100 ng/ml PMA to incubate for 24 hour; 3) Eluted the non-adherent cells once with 300 microliters of fresh growth medium of 10% fetal bovine serum/RPMI1640/1% double antibiotics; 4) Added 200 microliters of growth medium of 10% fetal bovine serum/RPMI1640/1% double antibiotics, with/without test compound, to pre-incubate the cells at 37° C. for 2 hours; 5) Then added 100 ng/mL lipopolysaccharide (LPS) and incubated at 37° C. for 4 hours: 6) Collected 50 microliters of cell culture supernatant for the detection of the levels of related cytokines by enzyme-linked immunoassay, or stored it in a refrigerator at minus 80 degrees Celsius for future detection; 1) Prepared 1× elution buffer for enzyme-linked immunoassay. Prepared it with ultrapure water: 10× elution buffer mother solution=9:1 in volume ratio for use; 2) Prepared the antibody cocktail for enzyme-linked immunoassay. Prepared it with the antibody diluent (provided by Ab221825):antibody 1:antibody 2=18:1:1 in volume ratio for use. Antibody 1 was a TNF-α capture antibody and Antibody 2 was a TNF-α detector antibody. They were all supplied by kit Ab221825; 3) Prepared a series of concentration gradient samples of TNF-α standard with ultrapure water for the plotting of reaction standard curve and determining the linear range of detection signal; 4) Added 50 microliters of cell culture supernatant/standard and 50 microliters of the above antibody cocktail to a 96-well plate used for enzymatic reaction, sealed it with a film, placed it on a horizontal shaker, and incubated at 400 rpm for 1 hour at room temperature to allow the antibody-antigen complex was fully bound and coupled at the bottom of the well plate; 5) Discarded the supernatant, eluted with 350 microliters of 1× elution buffer/well for 3 times. In the last elution, put the well plate upside down on an absorbent paper and sucked and washed it thoroughly; 6) Added 100 microliters of TMB substrate solution (supplied by Ab221825) to each well, placed them on a horizontal shaker and incubated in the dark at room temperature for 5 minutes at a speed of 400 rpm; 7) Added 100 microliters of reaction stop solution (provided by Ab221825), placed on a horizontal shaker and mix at 400 rpm for 1 minute; 8) Detected the absorbance at 450 nm with a microplate reader.

C=C[C@@]1(C)CC(=O)C2(O)[C@@]3(C)C(O)CCC(C)(C)C3[C@H](OC(=O)CCN(C)C)[C@H](OC(C)=O)[C@@]2(C)O1.Cl (some centres unmarked) [6-[3-(dimethylamino)propionyl]forskolin hydrochloride]
TNF-α level, % of the positive control (5 μM alone, FIG. 4): 33% | TNF-α, % of the positive control level (5 μM alone, FIG. 6): 58% | reduction in TNF-α levels (5 μM alone, FIG. 6): 42% | reduction in TNF-α level (5 μM used alone, FIG. 4): 67% | TNF-α level, % of the positive control (10 μM alone, FIG. 4): 27% | TNF-α, % of the positive control level (10 μM alone, FIG. 6): 44% | reduction in TNF-α level (inhibitory effect) (10 μM used alone, FIG. 4): 73% | inhibition at 10 µM (10 μM alone, FIG. 6, read-out: reduction in TNF-α levels (inhibitory effect)): 56% | inhibition at 10 µM (10 μM, 100 ng/ml LPS 4 hours, FIG. 1, read-out: inhibition of the TNF-α level of the positive control): ~75% | TNF-α treatment value, A (Table 3): 33% | TNF-α treatment value, A (Table 4): 58%

From patent US20220079915A1, “IMMUNOSUPPRESSIVE PHARMACEUTICAL COMPOSITION AND APPLICATION THEREOF” (Shanghai Archeus Biotech Co., Ltd., priority 2018, published 2022)
